Results on three compounds are retold here after patent publication US8637474B2, “Receptor modulators exhibiting neuroprotective and memory enhancing activities” (The Hong Kong University of Science and Technology, priority 2007, dated 2014).

Entries after “also recorded” stand apart in the source; their conditions may differ.

For orientation: Ki means a measure of affinity in units of concentration, obtained from inhibition or displacement. A high value points to lower affinity. As usually defined, the IC50 is the concentration needed to halve the response being measured. A higher IC50 goes with weaker potency. By inhibition is commonly meant the drop in the measured response relative to a control, in per cent.

In data set [1] the test system is rat primary cortical neurons. In words: NMDA survival assay (LDH release), primary cortical neurons. The class given is cell-based. Conditions: NMDA 20 μM; for reduction of cell death compared to DA001: compounds in μg/ml, FIG. 13. The protocol: FIG. 5 DA001 protects against NMDA excitotoxicity in rat cortical neurons. Embryonic rat cortical neurons (11DIV) were treated with NMDA (20 μM) in the absence or presence of TCM samples (μg/ml) or memantine (μM). Memantine is a known NMDA antagonist. LDH release in the medium was measured after overnight incubation and cell cytotoxicity was calculated as a percentage when compared to the solvent control, DMSO.
FIG. 12. Derivatives of DA001 rescue the cortical neurons from NMDA excitotoxicity. Embryonic rat cortical neurons (11DIV) were treated with NMDA (20 μM) in the absence or presence of DA001 or its derivatives (10 or 30 μM); LDH release in the medium after overnight or 24 hours incubation was measured and cell death was calculated as a percentage in comparison to DMSO, the solvent control. Data are expressed as mean±s.e.m. *=P<0.05.
FIG. 13. DA002 and DA021, both derivatives of DA001, reduced NMDA-induced excitotoxicity. Embryonic rat cortical neurons (11DIV) were treated with NMDA (20 μM) in the absence or presence of DA002 or DA021 (μg/ml). LDH release in the medium after overnight incubation was measured and cell cytotoxicity was calculated as a percentage in comparison to DMSO, the solvent control.
DA001 (at 10 μg/ml) reduced cell death by more than 60% compared to the DMSO control. Compound A0178 and memantine were included as negative and positive controls, respectively.
Memantine is an FDA-approved NMDA antagonist used for clinical indications such as dementia in Alzheimer's disease. Dose-dependant assays were performed for each compound and based on the resulting dose response curve, the corresponding EC50 for each compound was determined.
NMDA survival assays were performed to measure the degree of protection provided to cortical neuronal cells when treated with the novel compounds (at 30 μM, except DA026 at 10 μM) prior to NMDA insult.
Compounds derived from DA001 were tested for their ability to inhibit NMDA-induced excitotoxicity. Primary rat cortical neurons were subjected to NMDA insults in the presence and absence of the novel derivatives.
Cortical neurons were pre-treated with DA001 and subsequently subjected to varying concentrations of NMDA. Survival assays were then conducted to determine the ability of DA001 to effectively protect neuronal cells from NMDA-induced excitotoxicity.
LDH release into the medium was then measured.
Primary cortical and hippocampal neurons were prepared from embryonic day 18 (E18) Sprague-Dawley rats. Neurons were plated on 24-well pate (TPP, Corning) at a density of 2×10^5 cells per well using Neurobasal medium (Invitrogen) supplemented with 2% B27 (Invitrogen). […] The cell death was assayed and quantified using the lactate dehydrogenase release assay (Roche) after 24 hours. […]

For data set [2], the target named is melanocortin-1 (MC1) receptor (Homo sapiens, UniProt Q01726). In words: Radioligand competition binding assay, MC1. The protocol:
(§1) DA001 was evaluated against 109 receptor binding assays and 17 enzyme assays, comprising of selective, central and peripheral therapeutically-relevant targets. Radioligand competition assays were conducted whereby DA001 was tested at one concentration (10 μM) in duplicate. […] It could compete with the radioligand [^125I-NDP-alpha-melanocyte-stimulating hormone (α-MSH)] binding for MC1 and MC4 but not MC3 and MC5 nor the related family, the melanin concentrating hormone receptors (MCH1 and MCH2).
(§2) To determine the IC50 for DA001 to inhibit α-MSH binding on MC1 and MC4 receptor, the compound was further characterized by a dose-dependent study. DA001 was evaluated with 8 concentrations on MC1 and MC4 receptor binding assays.
(§3) The specific ligand binding to the receptors is defined as the difference between the total binding and the nonspecific binding determined in the presence of an excess of unlabelled ligand. The results are expressed as a percent of control specific binding [(measured specific binding/control specific binding)×100] and as a percent inhibition of control specific binding {100−[(measured specific binding/control specific binding)×100]} obtained in the presence of DA001. The IC50 values (concentration causing a half-maximal inhibition of control specific binding) and Hill coefficients (nH) were determined by non-linear regression analysis of the competition curves generated with mean replicate values using Hill equation curve fitting (Y=D+[(A−D)/(1+(C/C50)nH)], where Y=specific binding, D=minimum specific binding, A=maximum specific binding, C=compound concentration, C50=IC50, and nH=slope factor). This analysis was performed using a software developed at Cerep (Hill software) and validated by comparison with data generated by the commercial software SigmaPlot® 4.0 for Windows® (© 1997 by SPSS Inc.).

Data set [3] has as its target melanocortin-4 (MC4) receptor (Homo sapiens, UniProt P32245). Nature of the data set: Radioligand competition binding assay, MC4. The protocol: as §1, §2, §3
In general terms: Loss of bound radioactivity is the signal in a displacement assay; it reports binding, not function.

In a further data set the target is MC3 (Homo sapiens, UniProt P41968). Nature of the data set: Radioligand competition binding assay, MC3. Conditions: MC3, DA001 10 μM, duplicate; read-out: % inhibition of control specific binding. The protocol:
as §1

Data set [4] addresses melanin concentrating hormone receptor MCH2 (Homo sapiens, UniProt Q969V1). Nature of the data set: Radioligand competition binding assay, MCH2. Conditions: MCH2, DA001 10 μM, duplicate; read-out: % inhibition of control specific binding. On the procedure:
as §1

The target of another data set is MC5 (Homo sapiens, UniProt P33032). In words: Radioligand competition binding assay, MC5. Conditions: MC5, DA001 10 μM, duplicate; read-out: % inhibition of control specific binding. On the procedure: as §1
The next data set has as its target melatonin (MT1) receptor (Homo sapiens, UniProt P48039). In words: Radioligand competition binding assay, MT1. Conditions: MT1, DA001 10 μM, duplicate; read-out: % inhibition of control specific binding. The protocol: as §1
The subject of another data set is primary cortical neurons. Nature of the data set: Cell toxicity test (LDH) on primary neurons. The class given is cell-based. Conditions: 24 hours, all concentrations, maximum dose 70 μM. On the procedure: FIG. 8. […] Primary cortical neurons were treated with different concentrations of DA001 for 24 hours.
This was performed to study the effects of the invention on primary neurons. Cortical neurons isolated from embryonic day 18 Spraque-Dawley rats were cultured in Neurobasal medium supplemented with 2% B27 and penicillin/streptomycin solution (Invitrogen). Primary neurons of 7 days in culture (7 DIV) were treated with various concentrations of the invention in the absence of B27 for 24 hours. Lactate dehydrogenases (LDH) was released into the medium and measured and calculated as percentage compared to 1% Triton X-100.

In data set [5] the test system is rat primary hippocampal neurons. In words: NMDA survival assay (LDH release), primary hippocampal neurons. The class given is cell-based. As to conditions: DA001 30 μM, NMDA 20 μM. On the procedure: FIG. 6. DA001 protects against NMDA excitotoxicity in rat primary hippocampal neurons. Embryonic rat hippocampal neurons (11 DIV) were treated with NMDA (20 μM) in the absence or presence of DA001 (μM) or memantine (μM). LDH release in the medium was measured after overnight incubation and cell cytotoxicity was calculated in percentage when compared to solvent control (DMSO).
DA001 (at 30 μM) reduced cell death by ˜80%.
Primary cortical and hippocampal neurons were prepared from embryonic day 18 (E18) Sprague-Dawley rats. Neurons were plated on 24-well pate (TPP, Corning) at a density of 2×10^5 cells per well using Neurobasal medium (Invitrogen) supplemented with 2% B27 (Invitrogen). Neurons at 11-12 days in vitro (12DIV) were subjected to drug treatment. Neurons were pretreated with the test compound for 2 hours prior to NMDA treatment. 0.1 μM(+)-MK-801 Hydrogen Maleate (Sigma) was added as a positive control. Briefly, the neurons were rinsed with Locke's solution (5 mM potassium chloride, 128 mM sodium chloride, 2.7 mM calcium chloride, 1 mM di-sodium hydrogen orthophosphate, 5 mM HEPES and 10 mM glucose in Milli-Q water) without Mg^2+, and incubated with addition of glycine (10 μM) for 15 minutes. […] The cell death was assayed and quantified using the lactate dehydrogenase release assay (Roche) after 24 hours.
On the technique in general: LDH in the medium is a marker of cell lysis.

In the next data set the test system is BDNF expression. Nature of the data set: Real-time quantitative PCR, BDNF expression following NMDA treatment. The class given is cell-based, rat. On the procedure:
FIG. 20 illustrates that DA001 induces BDNF and NT-3 expression but not Bcl-2 or c-fos following NMDA treatment.
Cortical neurons were pre-treated with DA001 prior to being subjected to NMDA insults, after which total RNA was extracted at different time intervals after treatment. There was a 5-fold increase in BDNF expression after a 6 hour incubation period. BDNF expression remained ˜3-4 fold over the control (DMSO) 12-24 hours after treatment with DA001.
Total RNA was extracted followed by cDNA synthesis. Gene expression was normalized against home gene, hypoxanthine phosphoribosyltransferase 1 (HPRT1) and glyceraldehyde 3-phosphate dehydrogenase (GAPDH). Relative change in gene expression induced by DA001+H2O and DA001+NMDA was compared with the controls, DMSO+H2O and DMSO+NMDA, respectively.
Cortical neurons were pre-treated with DA001 after which the cells were subjected to NMDA insult. The expression of BDNF was measured at three different time intervals and compared to that of NT-3, Bcl-2 and c-fos. DA001 induced BDNF and NT-3 expression but not bcl-2 or c-fos under the same conditions. […]
Cortical neurons of 11DIV-12DIV were pre-incubated with DA001 or DMSO for 24hours. […] Real-time Quantitative PCR was performed using Power SYBR Green PCR Master Mix (Applied Biosystems) on the M×3000P Real-Time PCR System (Stratagene). […]

For data set [6], the target named is melanin concentrating hormone receptor MCH1 (Homo sapiens, UniProt Q99705). In words: Radioligand competition binding assay, MCH1. Conditions: MCH1, DA001 10 μM, duplicate; read-out: % inhibition of control specific binding. On the procedure: as §1
Chain of melanin concentrating hormone receptor MCH1 (Q99705 whole entry): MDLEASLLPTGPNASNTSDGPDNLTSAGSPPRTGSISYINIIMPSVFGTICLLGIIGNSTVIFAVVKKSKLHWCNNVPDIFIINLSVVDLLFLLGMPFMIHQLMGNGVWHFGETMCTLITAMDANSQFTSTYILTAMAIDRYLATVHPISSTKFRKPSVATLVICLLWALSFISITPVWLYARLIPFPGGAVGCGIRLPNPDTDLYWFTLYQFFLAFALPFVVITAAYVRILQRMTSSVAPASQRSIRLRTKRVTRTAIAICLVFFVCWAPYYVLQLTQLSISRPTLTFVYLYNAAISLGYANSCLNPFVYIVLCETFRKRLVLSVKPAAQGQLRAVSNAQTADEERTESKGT

Chain of melanocortin-4 (MC4) receptor (P32245 whole entry): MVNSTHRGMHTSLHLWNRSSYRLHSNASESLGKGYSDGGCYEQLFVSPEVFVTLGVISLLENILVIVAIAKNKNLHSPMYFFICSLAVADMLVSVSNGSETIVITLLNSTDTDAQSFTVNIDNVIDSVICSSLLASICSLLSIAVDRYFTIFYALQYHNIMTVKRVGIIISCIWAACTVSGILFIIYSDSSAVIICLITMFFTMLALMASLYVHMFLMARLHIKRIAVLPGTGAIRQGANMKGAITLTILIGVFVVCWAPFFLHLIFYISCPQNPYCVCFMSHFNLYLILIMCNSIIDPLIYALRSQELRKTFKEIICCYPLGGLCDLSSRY
Chain of melanocortin-1 (MC1) receptor (Q01726 whole entry): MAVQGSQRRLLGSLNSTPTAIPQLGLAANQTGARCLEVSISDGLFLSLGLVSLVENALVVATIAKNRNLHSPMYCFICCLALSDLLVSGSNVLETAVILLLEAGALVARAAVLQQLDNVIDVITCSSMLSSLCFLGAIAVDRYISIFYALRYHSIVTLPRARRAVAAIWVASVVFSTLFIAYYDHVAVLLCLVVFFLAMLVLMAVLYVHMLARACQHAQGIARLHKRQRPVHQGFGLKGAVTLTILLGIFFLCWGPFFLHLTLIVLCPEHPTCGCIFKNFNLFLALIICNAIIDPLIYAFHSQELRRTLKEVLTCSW
Chain of melanin concentrating hormone receptor MCH2 (Q969V1 whole entry): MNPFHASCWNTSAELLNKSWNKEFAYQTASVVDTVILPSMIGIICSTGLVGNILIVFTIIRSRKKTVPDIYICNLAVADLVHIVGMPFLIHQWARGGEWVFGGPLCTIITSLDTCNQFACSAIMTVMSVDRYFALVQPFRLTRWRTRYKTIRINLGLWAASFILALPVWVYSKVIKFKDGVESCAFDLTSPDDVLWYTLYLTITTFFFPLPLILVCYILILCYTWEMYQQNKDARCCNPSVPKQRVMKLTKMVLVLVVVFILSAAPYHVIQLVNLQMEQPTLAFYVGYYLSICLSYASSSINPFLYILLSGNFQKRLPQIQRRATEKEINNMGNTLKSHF
Chain of melatonin (MT1) receptor (P48039 whole entry): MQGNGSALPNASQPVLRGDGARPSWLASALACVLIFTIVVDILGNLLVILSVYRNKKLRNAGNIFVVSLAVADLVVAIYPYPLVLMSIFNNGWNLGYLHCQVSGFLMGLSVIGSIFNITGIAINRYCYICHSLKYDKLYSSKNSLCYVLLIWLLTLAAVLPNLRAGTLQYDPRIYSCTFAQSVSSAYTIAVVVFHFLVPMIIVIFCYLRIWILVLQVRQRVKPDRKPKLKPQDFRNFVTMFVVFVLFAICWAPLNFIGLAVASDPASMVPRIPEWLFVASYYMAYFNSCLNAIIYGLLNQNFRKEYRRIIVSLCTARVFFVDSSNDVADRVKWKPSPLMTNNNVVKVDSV
Chain of MC5 (P33032 whole entry): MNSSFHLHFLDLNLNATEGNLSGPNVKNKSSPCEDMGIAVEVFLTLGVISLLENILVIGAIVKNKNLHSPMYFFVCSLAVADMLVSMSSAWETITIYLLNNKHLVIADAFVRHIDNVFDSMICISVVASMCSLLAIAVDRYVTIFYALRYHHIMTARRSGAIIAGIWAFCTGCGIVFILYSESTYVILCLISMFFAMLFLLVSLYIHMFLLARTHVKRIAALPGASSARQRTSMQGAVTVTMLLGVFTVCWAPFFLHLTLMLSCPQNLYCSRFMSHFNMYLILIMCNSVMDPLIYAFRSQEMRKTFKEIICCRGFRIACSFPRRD
Chain of MC3 (P41968 whole entry): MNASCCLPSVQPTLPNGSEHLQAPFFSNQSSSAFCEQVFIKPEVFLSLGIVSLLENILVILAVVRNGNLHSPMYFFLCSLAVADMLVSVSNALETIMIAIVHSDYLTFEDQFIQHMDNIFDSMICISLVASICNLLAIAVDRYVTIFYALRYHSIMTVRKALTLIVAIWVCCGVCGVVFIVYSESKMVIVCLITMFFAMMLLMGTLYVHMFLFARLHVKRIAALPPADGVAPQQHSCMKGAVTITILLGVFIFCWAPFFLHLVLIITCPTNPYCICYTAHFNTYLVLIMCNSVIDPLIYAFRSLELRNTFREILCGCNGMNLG

As to `C=C(C)[C@@H]1CC[C@]2(C(=O)O)CC[C@]3(C)C(CC[C@@H]4[C@@]5(C)CC[C@H](O)[C@@](C)(CO)[C@@H]5CC[C@]43C)[C@@H]12` (stereo partly shown) [DA002, 3,23-Dihydroxy-20(29)-lupen-28-oic acid], the “reduction of cell death compared to DA001” value in [1] is on record as “reduced cell death prominently compared to DA001”.

For the compound `C=C(C)[C@@H]1CC[C@]2(C(=O)O)CC[C@]3(C)C(CC[C@@H]4[C@@]5(C)CC[C@H](O[C@@H]6OC[C@H](O)[C@H](O)[C@H]6O[C@@H]6O[C@@H](C)[C@H](O)[C@@H](O)[C@H]6O)[C@@](C)(CO)[C@@H]5CC[C@]43C)[C@@H]12` (stereo partly drawn) [DA001, 3-O-[α-L-rhamnopyranosyl-(1→2)-α-L-arabinopyranosyl]-3,23-dihydroxy-20(29)-lupen-28-oic acid], the inhibition constant (Ki) in data set [2] (MC1) is 5.2 µM; in [3] (MC4), 6.3 µM. Besides, the IC50 is 10 µM in data set [2] (MC1, 8 concentrations, α-MSH binding) and 6.8 µM in data set [3] (MC4, 8 concentrations, α-MSH binding). In addition, the inhibition at 10 µM in data set [2] (MC1, DA001 10 μM, duplicate, 125I-NDP-α-MSH, read-out: % inhibition of control specific binding) was 64%; in data set [3] (MC4, DA001 10 μM, duplicate, 125I-NDP-α-MSH, read-out: % inhibition of control specific binding) it was 59%; on MC3, 12%; in data set [4], -12%; at MC5, 11%; on melatonin (MT1) receptor, 28%. Moreover, the inhibition at 10 µM in [6] was -9%. The “cytotoxicity / cell death (LDH release)” value with primary cortical neurons is “No obvious cell death was observed at all doses examined; also recorded: did not induce cytotoxicity and cell death at all concentrations examined; also recorded: no significant toxicity was observed”. Further, in data set [1] (DA001 10 μg/ml, LDH release), the “reduction of cell death compared to DMSO control” value was “more than 60%”. Also, the “reduction of cell death” value in data set [5] is approximately 80%. In the data set with BDNF expression (12-24 hours after treatment), the “BDNF expression over the control (DMSO)” value is recorded as 3-4 fold. For the same compound, the “increase in BDNF expression” value with BDNF expression (after a 6 hour incubation period, DA001 pre-treatment 24 hrs, NMDA 20 μM) was 5 fold.

With `C=C(C)C1CCC2(C(N)=O)CCC3(C)C(CCC4C5(C)CCC(O)C(C)(CO)C5CCC43C)C12` (stereo not shown) [DA021, 3,23-Dihydroxy-20(29)-lupen-28-iminol], the “reduction of cell death compared to DA001” value in data set [1] is recorded as “reduced cell death prominently compared to DA001”. In addition, the “protection of cortical neurons against NMDA insult (cell death)” value in data set [1] (derivatives at 30 μM (DA026 at 10 μM), FIG. 12) is listed as “showed promising protective effect”.
